Legend:
cpA neuron [1] = assay: Single-sensillum recording: activation of cpA neuron by odorants; assay type: cell-based, Aedes aegypti; details: A. aegypti cpA, 0.5-s pulses, odorants 10^−2 in paraffin oil or water, solvent response subtracted
Protocol: FIG. 3b depicts representative traces and mean responses of the A. aegypti cpA neuron to 0.5-s pulses of 138 predicted compounds screened using single-sensillum recordings, in which odorants were diluted to 10^−2 in paraffin oil or water, and responses to solvent have been subtracted, n=2-6, and error bars are s.d.
FIG. 5f is a bar graph illustrating the mean responses of the A. aegypti cpA neuron to 0.5-s pulses of 22 newly predicted compounds screened as in FIG. 3b, where salmon bars correspond to odorants found in human odor, odorants were diluted to 10^−2 in paraffin oil or water, and responses to solvent have been subtracted, and n=2-5.
Adult female A. aegypti (Linnaeus 1762) (Rockefeller strain) A. gambiae sensu stricto Giles 1902 (G3 strain), or C. quinquefasciatus Say 1823 were tested 3-12 days post-emergence with single-sensillum extracellular recordings. Chemicals were obtained from Sigma-Aldrich at the highest purity (typically >99%) and were dissolved in paraffin oil or water. […] Response to clean beads was subtracted from the results reported. Only sensilla with cpA activity of <20 spikes s^−1 to negative control were considered for analysis.
(§1) CpA-off and sham treated mosquitoes were pre-treated for 3 min in an upended 1 L glass dish in which 100 μl of fresh butyryl chloride (1%) or paraffin oil was allowed to vaporize for 10-20 min. The odor delivery system for different screens is shown in FIG. 7b; solvent responses during the same recording session were subtracted. Inhibition screen was tested. For the ultra-prolonged activator the 3-s stimulus was delivered from a 10 ml disposable pipette using a CS-55 stimulus controller (Syntech), CO2 was delivered, and responses to subsequent odor stimuli were calculated by subtracting baseline activity 1 s prior to each stimulus. When responses to repeated pulses of cyclopentanone and CO2 were compared, baseline activity between seconds 5 and 6 following each stimulus was subtracted. Spike counting was done manually or with Igor Pro6.2 (Wavemetrics) with the Neuromatic v2.00 macro (by Jason Rothman), and peak-to-peak spike amplitudes for FIG. 8 were analysed in Clampfit 10.3 (Molecular Devices).
From the large list of cpA receptor ligands predicted from Example 3 above, 138 compounds were selected based on desirable criteria for application such as smell, presence in natural sources, human safety profile, and cost to procure. These compounds were tested individually using single-sensillum electrophysiology on the cp sensillum of female A. aegypti, according to the procedure described in Example 1 above.

cpA neuron [2] = assay: Inhibition screen: odorant overlaid on 0.15% CO2 stimulus, cpA response; assay type: cell-based, Aedes aegypti; details: for % Inhibition: 1-s odorant stimulus (10^−2) in the middle of a 3-s 0.15% CO2 stimulus, vs solvent overlay
Protocol: Percent inhibition was calculated by comparing mean odorant overlay responses to mean solvent overlay responses, and error bars are s.d.
as §1

C. quinquefasciatus = assay: Semi-field two-choice greenhouse trapping; assay type: in vivo, Culex quinquefasciatus; details: 10% lactic acid bait
From the text: FIG. 4g is a schematic of two-choice greenhouse experiments with two counterflow geometry traps, in which mosquitoes were trapped overnight in odorant-baited and solvent (water)-baited traps.
Semi-field trapping: Two modified greenhouses at the Agricultural Experiment Station at the University of California, Riverside, were used as described previously^2, with modifications. Fifty laboratory-reared, mated, non-blood fed female C. quinquefasciatus aged 8-14 days and starved for 24 hrs were released each evening around 5 pm and traps collected at ˜7 am. Counter flow geometry traps baited with CO2 (250 ml min^−1, ˜670 mmol/hr) odorant were used as described^2, with modifications. Odorant solutions in water were dispensed from 20 cm long gauze wicks protruding from uncapped 50 ml tubes beneath the trap outflow. For each trial, one baited trap and one control trap (water-filled) were placed in each of two greenhouses (FIG. 4g). For two-choice CO2 trials, water was placed under both traps. For two-choice ethyl pyruvate trials, both traps expelled CO2, and one trap also released ethyl pyruvate from an open 2.8×7 cm glass vial. Since ethyl pyruvate has very low volatility pure compound was used to generate ˜1.7 mmol/hr. An empty vial was placed under control traps. Treatment position and trap were alternated across trials. Volume of solution lost from tubes containing 5%, 10%, or 20% cyclopentanone were measured after each trial and the average loss of molecules calculated respectively for 3 concentrations as (±s.d.) of 0.7 (±0.1), 1.7 (±0.4), and 3.8 (±0.3) mmol/hr, respectively. Preference index=(# mosquitoes in odor-baited trap−# mosquitoes in control trap)/(total # mosquitoes caught in both traps).
The efficacy of cyclopentanone as a lure was tested using traps in controlled semi-field experiments with C. quinquefasciatus, a mosquito present in Southern California, where the experiments took place. 50 female mosquitoes were released overnight in a modified greenhouse that contained two counter-flow geometry mosquito traps (FIG. 4g). One trap was baited with an evaporative lure of cyclopentanone diluted in water, and the second trap was baited with water alone.

cpA neuron [3] = assay: Ultra-prolonged activation: cpA firing after 3-s odorant exposure; assay type: cell-based, Aedes aegypti
From the text: FIG. 3d depicts representative traces from the A. aegypti cp sensillum to 1-s pulses of 0.15% CO2 prior to and following a 3-s exposure to either solvent (paraffin oil) or (E)-2-methylbut-2-enal (10^−1).
FIG. 3e is a graph illustrating the cpA baseline activity in the 1 s prior to each stimulus is elevated following exposure to odorant, where error bars are s.e.m.
FIG. 3f is a bar graph illustrating the mean responses of the cpA neuron to 1-s pulses of 0.15% CO2, calculated by subtracting the 1 s of the baseline activity prior to each stimulus, where n=5-6 individuals, analysed by t-test, ***p<0.001, and error bars are s.e.m.
as §1

CO2 receptor = details: cited from earlier work
antennal neurons = assay: Electroantennogram (EAG) after butyryl chloride treatment; assay type: cell-based, Aedes aegypti
Protocol: FIG. 2e is a graph illustrating averaged traces and FIG. 2f is a graph illustrating mean electroantennograph (EAG) responses to air puffed over glass beads laden with foot odor or a clean bead control, where EAG peaks are normalized to 3-methyl-1-butanol response, n=9, and analysed by t-test.
FIG. 9d illustrates EAG responses normalized to the reference odor 3-methyl-1-butanol. No significant differences due to treatment (n=9; t-test).
Standard whole-antenna recordings were performed with minor modifications. Traces were averaged using Clampfit software (Molecular Devices), and responses were normalized to interspersed pulses of a reference odorant, 3-methyl-1-butanol, according to the formula: Raw response (mV)/(ax+by), where a and b are the responses (mV) to the immediately previous and subsequent reference odor stimulation, respectively, and x and y are the proportion of time elapsed between stimuli (so that x+y=1).

A. aegypti [4] = assay: Wind tunnel assay of attraction to human foot odor beads; assay type: in vivo, Aedes aegypti
Protocol: FIG. 2h is a schematic of wind tunnel assay, where human odor was provided by a dish of glass beads that had been worn in socks for ˜6 hrs (Person 1), and flight behaviour of individual female mosquitoes was recorded for 5 min or until they landed on the beads.
FIGS. 2i-k are bar graphs illustrating the proportion of butyryl chloride pre-exposed and sham treated mosquitoes presented with beads with no odor or foot odor that landed on beads (FIG. 2i), that took off from the release cage (FIG. 2j), and that did take off that succeeded in landing on the beads (FIG. 2k), where n=20-23 individuals per condition, analysed by one-tailed proportion Z-test, *p<0.05, **p<0.01, ***p<0.001, and error bars are s.e.m. All odorants except CO2 were dissolved in paraffin oil at 10^−2 except where indicated. […]

cpA neuron [5] = assay: Butyryl chloride pre-exposure (cpA-off): cp sensillum responses to CO2, skin odorants, foot odor; assay type: cell-based, Aedes aegypti
From the text: FIG. 2b depicts representative cp responses to 0.5-s pulses of indicated odorants after a 3-min pre-exposure to butyryl chloride (10^−2) (cpA-off) or solvent (sham treatment).
FIG. 2c is a bar graph illustrating the mean odorant-evoked responses of the cpA neuron in cpA-off and sham treated mosquitoes, and FIG. 2d is a bar graph illustrating the combined odor-evoked responses of two neighbouring neurons, cpB and cpC, where for both of these figures, n=6 individuals, 1-4 sensilla surveyed per individual; analysed by nested ANOVA, and baseline refers to cpA activity in the presence of room air.
as §1

A. aegypti [6] = assay: Short-range attraction to heat and humidity; assay type: in vivo, Aedes aegypti; details: after pre-exposure; control for general deficits
Protocol: FIG. 9f illustrates mosquitoes' tendency to rest at the top surface of the cage increased in the presence of a warm, wet stimulus. […] No significant differences due to treatment (n=6 replicates; Mann-Whitney rank-sum test).
Ten 6-day-old female A. aegypti were starved 30 hrs in a 7 cm diameter×˜5 cm high cage with wire mesh on one side and placed inside an aquarium. After 5 min a beaker with 750 ml warm water (40° C.) and filter paper soaked with 400 μl water were placed 5 mm above the cage (FIG. 9e). CpA-off and sham treated mosquitoes were video-recorded and counted at 30 s intervals.

CO2 receptor neuron [7] = assay: Activity of CO2 receptor neuron during spermidine and spermine stimulus windows; assay type: cell-based; details: CO2 receptor neuron activity during stimulus window
Protocol: The polyamines were diluted 0.001 to 10% in paraffin oil (PO). Also shown in Table 7 are the activity values of the CO2 receptor neuron during the spermidine and spermine stimulus windows (error bars=s.e.m.).

CO2 receptor neuron [8] = assay: Amines: inhibition of CO2 receptor neuron activity; assay type: cell-based; details: dose response

## 2-ethyl-5(6)-methylpyrazine
cpA neuron [1]
  Activation (spikes s^−1): 14.0 spikes s^−1
cpA neuron [2]
  % Inhibition: −2.0%

## c1cn[nH]c1 [1H-pyrazole]
cpA neuron [1]
  Activation (spikes s^−1): 3.5 spikes s^−1
cpA neuron [2]
  % Inhibition: 4.9%

## CC(O)C(=O)O (stereo not drawn) [2-hydroxypropanoic acid]
C. quinquefasciatus
  catch vs control traps: did not catch significantly more mosquitoes
cpA neuron [1]
  Activation (spikes s^−1): −1.0 spikes s^−1

## CC(C)C=O [2-methylpropanal]
cpA neuron [1]
  Activation (spikes s^−1): 29.0 spikes s^−1
cpA neuron [2]
  % Inhibition: 5.8%

## CC(C)CS [2-methylpropane-1-thiol]
cpA neuron [1]
  Activation (spikes s^−1): 37.0 spikes s^−1
cpA neuron [2]
  % Inhibition: −2.9%

## CC(=O)C=O [2-oxopropanal]
cpA neuron [1]
  Activation (spikes s^−1): −2.0 spikes s^−1
cpA neuron [2]
  % Inhibition: −33.6%

## C/C=C(\C)C=O [(E)-2-methylbut-2-enal]
cpA neuron [3]; after 3-s exposure
  duration of sustained firing of cpA: at least 5.5 min
cpA neuron [3]; after 3-s exposure (10^−1)
  sustained firing of cpA: ~45 spikes s^−1
cpA neuron [3]; during sustained firing period
  cpA responses to 1-s pulses of 0.15% CO2 relative to controls: significantly reduced
cpA neuron [1]
  Activation (spikes s^−1): 59.5 spikes s^−1

## CCCC(=O)O [butanoic acid]
CO2 receptor
  inhibition of the CO2 receptor: strongest known inhibitors

## CCCC=O [butyraldehyde]
CO2 receptor
  inhibition of the CO2 receptor: strongest known inhibitors

## CCCC(=O)Cl [butyryl chloride]
Antennal neurons; after treatment
  summed responses of antennal neurons to panel of skin odorants (EAG): unaffected
Antennal neurons; with or without treatment
  summed response of antennal neurons to foot odor (EAG): not statistically different
A. aegypti [4]; after pre-exposure (cpA-off)
  proportion of mosquitoes that initiated upwind flight from release cage: greatly reduced
A. aegypti [4]; after pre-exposure, 5-min assay
  proportion of mosquitoes that landed on human odor beads: substantially reduced
cpA neuron [5]; 3-min exposure to 10^−2 volatiles, tested ~5-20 min after exposure
  cpA subsequent responses to 1% CO2: completely abolished
cpA neuron [5]; after 3-min pre-exposure
  cpA responses to activating skin odorants: substantially reduced
  time to recovery of cpA to control levels after treatment: 12 to 24 h
cpA neuron [5]; after treatment, selectivity for cpA
  odor-evoked responses of cpB and cpC neurons: not reduced
cpA neuron [5]; single puff of 1% butyryl chloride
  cpA firing in response to subsequent CO2 stimuli: inhibits cpA from firing
cpA neuron [5]; tested ~5-20 min after exposure
  cpA response to foot odor collected on beads: completely lost
A. aegypti [6]
  ability or preference for resting at top of cage, warm moist stimulus: did not impair

## COC(=O)C(C)=O [methyl 2-oxopropanoate]
cpA neuron [2]
  fold lower concentration for comparable inhibition vs previously reported inhibitors such as 1-hexanol: ~10 times
cpA neuron [2]; overlaid on 0.15% CO2
  inhibition of cpA activity: strongly inhibited

## NCCCCNCCCN [spermidine]
CO2 receptor neuron [7]; 0.001% in paraffin oil
  Ave. Activity: 62.3
CO2 receptor neuron [7]; 0.01% in paraffin oil
  Ave. Activity: 55.3
CO2 receptor neuron [7]; 0.1% in paraffin oil
  Ave. Activity: 10.0
CO2 receptor neuron [7]; 1% in paraffin oil
  Ave. Activity: 5.3
CO2 receptor neuron [7]; 10% in paraffin oil
  Ave. Activity: 6.0
CO2 receptor neuron [8]; 0.001% in paraffin oil
  Average % Inhibition: −1.0%
CO2 receptor neuron [8]; 0.01% in paraffin oil
  Average % Inhibition: 10.6%
CO2 receptor neuron [8]; 0.1% in paraffin oil
  Average % Inhibition: 85.1%
CO2 receptor neuron [8]; 1% in paraffin oil
  Average % Inhibition: 92.2%
CO2 receptor neuron [8]; 10% in paraffin oil
  Average % Inhibition: 91.3%

## NCCCNCCCCNCCCN [spermine]
CO2 receptor neuron [7]; 0.001% in paraffin oil
  Ave. Activity: 52.0
CO2 receptor neuron [7]; 0.01% in paraffin oil
  Ave. Activity: 52.3
CO2 receptor neuron [7]; 0.1% in paraffin oil
  Ave. Activity: 14.0
CO2 receptor neuron [7]; 1% in paraffin oil
  Ave. Activity: 2.7
CO2 receptor neuron [7]; 10% in paraffin oil
  Ave. Activity: 2.3
CO2 receptor neuron [8]; 0.001% in paraffin oil
  Average % Inhibition: −5.6%
CO2 receptor neuron [8]; 0.01% in paraffin oil
  Average % Inhibition: −3.2%
CO2 receptor neuron [8]; 0.1% in paraffin oil
  Average % Inhibition: 76.5%
CO2 receptor neuron [8]; 1% in paraffin oil
  Average % Inhibition: 94.8%
CO2 receptor neuron [8]; 10% in paraffin oil
  Average % Inhibition: 95.1%

Source: patent US9897592B2, “Methods for identifying arthropod repellents and attractants, and compounds and compositions identified by such methods” (The Regents of the University of California, priority 2013, dated 2018)
